From publication PMC9103815, “Phytochemical Analysis, α-Glucosidase and α-Amylase Inhibitory Activities and Acute Toxicity Studies of Extracts from Pomegranate (Punica granatum) Bark, a Valuable Agro-Industrial By-Product” (Foods, 2022)

Molecular target: T1, pancreatic α-amylase (Homo sapiens, UniProt P04746)
T1 construct: purchased Sigma-Aldrich
T1 sequence (P04746 16-511): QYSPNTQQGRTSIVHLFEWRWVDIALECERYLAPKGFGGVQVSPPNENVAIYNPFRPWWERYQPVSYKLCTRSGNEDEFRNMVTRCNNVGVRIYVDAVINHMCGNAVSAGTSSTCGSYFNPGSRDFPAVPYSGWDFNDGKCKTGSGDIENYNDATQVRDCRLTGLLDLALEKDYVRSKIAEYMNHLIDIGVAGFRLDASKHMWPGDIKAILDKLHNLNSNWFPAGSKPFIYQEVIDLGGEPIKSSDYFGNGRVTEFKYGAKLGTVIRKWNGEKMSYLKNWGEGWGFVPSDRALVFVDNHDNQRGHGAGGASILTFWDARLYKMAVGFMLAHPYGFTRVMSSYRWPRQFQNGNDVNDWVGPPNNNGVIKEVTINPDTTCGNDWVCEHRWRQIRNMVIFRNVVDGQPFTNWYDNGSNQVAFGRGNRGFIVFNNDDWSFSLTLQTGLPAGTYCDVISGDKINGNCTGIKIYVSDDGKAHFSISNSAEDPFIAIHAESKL
Assay: In vitro inhibition of pancreatic α-amylase (starch, DNSA)
Type: biochemical
Settings: pure commercial standards; triplicate; Figure 7 A-C
Protocol: Pancreatic α-amylase inhibition activity was assessed according to the method described by Daoudiet al. [25]. […] The solutions were prepared by dissolving the enzymes and samples in a phosphate buffer solution (0.1 M, pH 6.9). The mixtures were incubated for 10 min at 37 °C. Next, 200 μL of 1% starch also dissolved in a phosphate buffer was added to the reaction mixture, and all test tubes were incubated for another 20 min at 37 °C. To stop the reaction, 600 μL of DNSA (1 g of 3,5-dinitrosalicylic acid dissolved in 20 mL of NaOH(2N), combined with 30 g of KNaC4H4O6, and filled up to 100 mL with distilled water) was added. Afterward, the mixture was posed in a water bath at 100 °C for 8 min, then it was put in an ice-cold-water bath for a few minutes. About 1 mL of distilled water was added to the sample tubes before their absorbance measurement at 540 nm.
The percentage of inhibition was computed using the following formula:(2) Inhibitory activity (%)=Abs control 540 nm− Abs sample 540 nm/Abs control 540 nm×100
Increasing concentrations were utilized to calculate the IC50 value. The enzymatic assays were carried out as indicated above.

IC50 | SMILES
30.8 ± 2.11 µM | Oc1cc(O)c2c(c1)O[C@@H](c1ccc(O)c(O)c1)[C@H](O)C2 [Catechin, (−)-catechin]
29.4 ± 4.57 µM | O=c1oc2c(O)c(O)cc3c(=O)oc4c(O)c(O)cc1c4c23 [Ellagic acid]
